Source: PubChem BioAssay (NCI)
Where “and” joins values, the source holds several entries; their conditions need not be identical. Identical values can stand only once.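 Protocol summary: plate cells (96-well), add compound at 5 concentrations, incubate 48 h, interpolate endpoints linearly. GI50: concentration for 50% inhibition of growth. Definition used: TGI = concentration required for complete inhibition of growth.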

Experiments:
Assay in all cases: DTP human tumour cell line panel, 48 h
[1] = tested on: HCT-116 colon
[2] = tested on: RXF 393 renal
[3] = tested on: HCT-15 colon
[4] = tested on: COLO 205 colon
[5] = tested on: OVCAR-3 ovarian
[6] = tested on: K-562 leukemia
[7] = tested on: SF-268 CNS
[8] = tested on: LOX IMVI melanoma
[9] = tested on: SK-MEL-5 melanoma
[10] = tested on: MCF7 breast

`C=CCOCCCC(=O)C(=[N+]=[N-])C(=O)OC` was tested, and the TGI [1] was greater than 100 µM, the TGI [2] was greater than 100 µM and the TGI [3] was greater than 100 µM. For the same compound, the TGI [4] was greater than 100 µM, the TGI [5] was greater than 100 µM and the TGI [6] was greater than 100 µM. The TGI [7] was greater than 100 µM, the TGI [8] was greater than 100 µM and the TGI [9] was greater than 100 µM.
`C=C1C(C2(C)C=CC(=O)OC3(C)COC(=O)CC32)C(OC=O)C(OC(=O)C(O)C(C)CC)C2(C)C(c3ccoc3)CC(OC(C)=O)C12O` (stereo not given) showed a TGI [1] greater than 100 µM, a TGI [2] greater than 100 µM and a TGI [3] greater than 100 µM. For the same compound, the TGI [10] was greater than 100 µM, the TGI [4] was greater than 100 µM and the TGI [5] was greater than 100 µM. For the same compound, the TGI [6] was greater than 100 µM, the TGI [7] was greater than 100 µM and the TGI [8] was 88.2 µM. The TGI [9] was greater than 100 µM.
For `Cc1c(N)nc([C@H](CC(N)=O)NC[C@H](N)C(N)=O)nc1C(=O)N[C@H](C(=O)N[C@H](C)[C@@H](O)[C@H](C)C(=O)N[C@H](C(=O)NCCc1nc(-c2nc(C(=O)NCCC[S+](C)C)cs2)cs1)[C@@H](C)O)C(OC1OC(CO)C(O)C(O)C1OC1OC(CO)C(O)C(OC(N)=O)C1O)c1cnc[nH]1` (stereo not given in full), the TGI [1] was 20.9 µM [middle of 4 runs], the TGI [3] was 29 µM [middle of 4 runs] and the GI50 [10] was 1.71 µM and 3.16 µM. For the same compound, the TGI [10] was 22.5 µM and 25 µM and > 100 µM, the TGI [5] was 29 µM [middle of 4 runs] and the GI50 [8] was 0.0661 µM. For the same compound, the TGI [8] was 5.32 µM and 1.89 µM and 1.51 µM and the TGI [9] was 16.9 µM [middle of 4 runs].
In the case of `CCCCC1Cc2cc(OC)ccc2-c2nc3cc(OC)ccc3n21` (stereo not given) (tested in a mixture with another compound), the TGI [1] is reported as 22.8 µM, the TGI [2] is reported as 30.8 µM and the TGI [3] is reported as 11.3 µM. The TGI [10] was 33.5 µM, the TGI [4] was 18.7 µM and the TGI [5] was 29.8 µM. For the same compound, the TGI [6] was 36.8 µM, the TGI [7] was 33.5 µM and the TGI [8] was 30 µM. It also gave a TGI [9] of 27.4 µM.
For `COC1(OC)C[C@H](C)[C@@]23O[C@]24c2cc(O)c5c(c2N[C@H]3C#C/C=C\C#C[C@]14O)C(=O)c1ccccc1C5=O`, the TGI [1] was 0.148 µM, the GI50 [2] was 0.00163 µM and the TGI [2] was 0.0256 µM and 0.0186 µM. The GI50 [3] was 0.0118 µM, the TGI [3] was 0.24 µM and 0.543 µM and the TGI [4] was 0.0369 µM. For the same compound, the TGI [5] was 0.77 µM, the GI50 [6] was 0.00399 µM and the TGI [6] was 0.101 µM and 0.201 µM. It also gave a GI50 [7] of 0.00193 µM, a TGI [8] of 0.049 µM and a GI50 [9] of 0.00172 µM. The TGI [9] was 0.0222 µM and 0.00891 µM.
`OC(c1ccc(-c2ccccc2)cc1)(c1ccc(-c2ccccc2)cc1)c1ccc(-c2ccccc2)cc1` gave a TGI [1] greater than 100 µM, a TGI [2] greater than 100 µM and a TGI [3] greater than 100 µM. The TGI [10] was greater than 100 µM, the TGI [4] was greater than 100 µM and the TGI [5] was greater than 100 µM. The TGI [6] was greater than 100 µM, the TGI [7] was greater than 100 µM and the TGI [8] was greater than 100 µM. It also gave a TGI [9] greater than 100 µM.
Compound `Cc1c(Cl)c(=O)oc2cc(OCC(=O)c3ccccc3)ccc12` has a TGI [2] greater than 100 µM, a TGI [3] greater than 100 µM and a TGI [10] greater than 100 µM. For the same compound, the TGI [4] was greater than 100 µM, the TGI [5] was greater than 100 µM and the TGI [6] was greater than 100 µM. The TGI [7] was greater than 100 µM and the TGI [9] was greater than 100 µM.
Compound `CC(=O)C1=C(O)C2(O)C(=O)c3c(c(C)c4ccc(C)c(O)c4c3O)CC2C(N)C1=O` (stereo not given) has a TGI [1] of 14 µM, a TGI [2] of 20 µM and a TGI [3] of 9.99 µM. For the same compound, the GI50 [10] was 2.84 µM, the TGI [10] was 18.3 µM and the TGI [4] was 3.34 µM. For the same compound, the TGI [5] was 13.2 µM, the TGI [6] was 12.2 µM and the TGI [7] was 13.6 µM. The TGI [8] was 11.4 µM and the TGI [9] was 3.85 µM.
Compound `CN(C)CCNc1c([N+](=O)[O-])cc2c3c(cccc13)C(=O)N(CCN(C)C)C2=O` has a TGI [1] of 15.3 µM, a TGI [2] of 3.69 µM and a TGI [3] of 5.54 µM. The TGI [10] was greater than 20.4 µM, the TGI [4] was 2.71 µM and the TGI [5] was 5.44 µM. For the same compound, the TGI [6] was 4.51 µM, the TGI [7] was 4.6 µM and the TGI [8] was 4.01 µM. It also gave a TGI [9] of 4.32 µM.
`O=C(O)C(Cc1ccccc1)N1C(=O)c2ccccc2C1=O` (stereo not given) showed a TGI [1] greater than 100 µM, a TGI [2] greater than 100 µM and a TGI [3] greater than 100 µM. The TGI [10] was greater than 100 µM, the TGI [4] was greater than 100 µM and the TGI [5] was greater than 100 µM. It also gave a TGI [6] greater than 100 µM, a TGI [7] greater than 100 µM and a TGI [8] greater than 100 µM. For the same compound, the TGI [9] was greater than 100 µM.
Compound `Cc1c2c(cc3c1[nH]c1ccccc13)C(c1ccc(F)cc1)=NCC2` has a TGI [1] of 5.41 µM, a TGI [2] of 4.32 µM and a TGI [3] of 12.4 µM. It also gave a TGI [10] of 7.78 µM, a TGI [4] of 2.15 µM and a TGI [5] of 2.93 µM. For the same compound, the TGI [6] was 5.93 µM, the TGI [7] was 19.6 µM and the TGI [8] was 3.02 µM. For the same compound, the TGI [9] was 4.83 µM.
`O=C1CC(N2C(=O)/C(=C/C(Cl)=C\c3ccc([N+](=O)[O-])cc3)SC2=S)C(=O)N1c1ccc(Cl)cc1` (stereo not given) gave a GI50 [1] of 1.35 µM, a TGI [1] of 3.04 µM and a GI50 [2] of 1.26 µM. It also gave a TGI [2] of 2.72 µM, a GI50 [3] of 0.599 µM and a TGI [3] of 8.2 µM. For the same compound, the GI50 [10] was 1.38 µM, the TGI [10] was greater than 100 µM and the GI50 [4] was 1.4 µM. The TGI [4] was 3.76 µM, the GI50 [5] was 0.721 µM and the TGI [5] was 2.62 µM. For the same compound, the GI50 [6] was 0.692 µM, the TGI [6] was 11.6 µM and the GI50 [7] was 3.07 µM. For the same compound, the TGI [7] was greater than 100 µM.
